Where “and” joins values, the source holds several entries; their conditions need not be identical. Identical values can stand only once.

These results are taken from PMC10122656, “Siglec-6 mediates the uptake of extracellular vesicles through a noncanonical glycolipid binding pocket” (Nature Communications, 2023).

In experiment [1] the target is T1, CHO cells expressing Siglec-6 mutants (C46A, C172A, R to A mutants, F93A, L95A, G175M) (Homo sapiens, UniProt O43699, R100A).
T1 construct: These new CHO cell lines are the full-length versions of the Siglecs; expressed in transfected cells
T1 sequence (O43699 27-453 R100A): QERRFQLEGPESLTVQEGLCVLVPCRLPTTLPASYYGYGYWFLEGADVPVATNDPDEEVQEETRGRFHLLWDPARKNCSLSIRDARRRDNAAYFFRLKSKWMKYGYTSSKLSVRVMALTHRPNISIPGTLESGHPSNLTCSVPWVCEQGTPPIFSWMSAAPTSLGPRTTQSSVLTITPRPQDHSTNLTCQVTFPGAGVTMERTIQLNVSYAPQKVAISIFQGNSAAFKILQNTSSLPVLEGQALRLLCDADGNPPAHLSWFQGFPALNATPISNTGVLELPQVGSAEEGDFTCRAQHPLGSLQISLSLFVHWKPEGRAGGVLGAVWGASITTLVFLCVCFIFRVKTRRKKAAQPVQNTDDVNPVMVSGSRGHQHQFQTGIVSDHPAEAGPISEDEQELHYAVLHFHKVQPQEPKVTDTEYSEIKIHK
In words: Cell assay (liposome/EV binding, flow cytometry).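 On liposome binding, fluorescence signal (replicates): AF647 fluorescence intensity from 0.1 mol% AF647–PEG45–DSPE in liposomes.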 The format is cell-based. As to conditions: sheet Figure S26a, 3% GM3-DAG liposomes, R100A. As for the experimental part:
(§1) Mutations were introduced into each Siglec via gene overlap extension PCR mutagenesis (primers were ordered through IDT). Mutagenesis primers can be found in Supplementary Tables 2 and 3 for the critical arginine mutants of the entire Siglec family and the additional Siglec-6 mutants respectively.
(§2) 200,000 cells/well were plated into a 96-well U-bottom microplate and centrifuged at 300 × g for 5 min. The cells were then resuspended in 50 µL of 50 µM liposome/50 µg/mL (protein concentration) of EV solution in DMEM F12 5% FBS and incubated at 37 °C for 30 min. Excess liposomes were then removed via centrifuged at 300 × g for 5 min followed by washing the cells with FACS solution. The cells were then resuspended in (1:250 V/V) anti-Siglec-flow buffer (1% V/V FBS, 500 µM, EDTA Hank’s Balanced Salt Solution pH 7.4), solution and left to rest on ice for 30 min. The cells were then centrifuged again at 300 × g for 5 min and the cells were resuspended in FACS buffer solution and were then ready for analysis by flow cytometry. Information regarding antibody clone, catalog number supplier, label isotype, and dilution can be found in Supplementary Table 6. The Siglec-positive cells were gated on for liposome-binding analysis (Supplementary Fig. 1b).
(§3) Flow cytometry measurements were collected on a 5-laser Fortessa X-20 (BD Bioscience). All the resulting data were analyzed using FlowJo (10.5.3) software (BD Biosciences).
On the technique in general: Flow cytometry measures light scatter and fluorescence of single cells or particles in a stream.

The target of experiment [2] is T2, CHO cells expressing Siglec-6 mutants (C46A, C172A, R to A mutants, F93A, L95A, G175M) (Homo sapiens, UniProt O43699, F93A).
T2 construct: These new CHO cell lines are the full-length versions of the Siglecs; expressed in transfected cells
T2 sequence (O43699 27-453 F93A): as the sequence (O43699 27-453 R100A) above, with F67A, A74R counted along it
In words: Cell assay (liposome/EV binding, flow cytometry).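 On liposome binding, fluorescence signal (replicates): AF647 fluorescence intensity from 0.1 mol% AF647–PEG45–DSPE in liposomes.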 The format is cell-based. As to conditions: sheet Figure S28b, 3% GM3-DAG liposomes, F93A. As to the method: as §1, §2, §3

Experiment [3] addresses T3, Daudi cells transduced with WT Siglec-6 (Homo sapiens, UniProt O43699).
T3 construct: expressed in transfected cells; host or cells: Daudi cells (human B-cell line), lentiviral transduction
Kind of experiment: Imaging flow cytometry internalization. The conditions noted are these: 60 min at 4 or 37 °C. The format is cell-based. As for the experimental part:
Approximately 2 × 10^5 Daudi cells/well were plated into a 96-well U-bottom microplate and centrifuged at 300 × g for 5 min. The cell pellets were placed on ice, and 50 µL of 100 µM of liposome or 1:20 µL of EVs in RPMI growth medium (Gibco) containing 10% (V/V) fetal bovine serum (FBS; Gibco), 100 U/mL penicillin (Gibco), and 100 µg/mL streptomycin (Gibco) was added to their corresponding wells. Plates were incubated for 1 h at either 4 or 37 °C. After incubation, plates were centrifuged at 300 × g, 5 min, 4 °C then incubated with fluorescently conjugated anti-Siglec-6 antibody (Alexa Fluor 488; 1:250 dilution; R&D Systems) for 25 min at 4 °C. The plates were centrifuged once more at 300 × g, 4 °C, 5 min and the resulting cell pellet was resuspended in 40 µL of flow buffer (1% FBS, 500 µM EDTA Hank’s Balanced Salt Solution pH 7.4). 5000 events were collected for each sample using the ImageStream®X Mk II Flow cytometer (excitation lasers 488 nm and 642 nm, ×60 magnification). Data analysis was performed using IDEAS software, version 6.2.

In experiment [4] the test system is CHO cells expressing Siglec-6 mutants (C46A, C172A, R to A mutants, F93A, L95A, G175M). Kind of experiment: Cell assay (liposome/EV binding, flow cytometry).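 On liposome binding, fluorescence signal (replicates): AF647 fluorescence intensity from 0.1 mol% AF647–PEG45–DSPE in liposomes.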 The format is cell-based, human. As to conditions: cell assay. As for the experimental part:
as §1, §2, §3

T3 sequence (O43699 27-453): as the sequence (O43699 27-453 R100A) above, with A74R counted along it

With `CCCCCCCCCCCCCCCCOCC(COCCCCCCCCCCCCCCCC)OCc1cn(CCO[C@@H]2O[C@H](CO)[C@@H](O[C@@H]3O[C@H](CO)[C@H](O)[C@H](O[C@]4(C(=O)O)C[C@H](O)[C@@H](NC(C)=O)[C@H]([C@H](O)[C@H](O)CO)O4)[C@H]3O)[C@H](O)[C@H]2O)nn1` [GM3-DAG], the “liposome binding, fluorescence signal (replicates)” value was 2485 and 2181 and 2573 and 2894 in experiment [1]; 1045 and 1034 and 1148 in experiment [2].

On to `CCCCCCCCCCCCCCCCOCC(COCCCCCCCCCCCCCCCC)OCc1cn(CCO[C@@H]2O[C@H](CO)[C@@H](O[C@@H]3O[C@H](CO)[C@H](O)[C@H](O[C@]4(C(=O)O)C[C@H](O)[C@@H](NC(C)=O)[C@H]([C@H](O)[C@H](O)CO)O4)[C@H]3O)[C@H](O)[C@H]2O)nn1` [nGL 5], for which the “internalization of 5 nGLLs by imaging flow cytometry” value in experiment [3] is “internalize 5 nGLLs at 37 °C but not 4 °C”. In experiment [4], the “5 nGLL binding to C46A and C172A mutants of Siglec-6” value is “did not recognize”; the “5 nGLL binding to F93A, L95A and G175M Siglec-6 mutants” value is on record as “significantly decreased binding”; the “5 nGLL binding to R109A and R114A Siglec-6 mutants” value is listed as “modest reduction in binding”. Moreover, the “5 nGLL binding to R92A and R100A Siglec-6 mutants” value in experiment [4] (both expressed at low levels) is “more pronounced reduction in binding”.
